How the values were obtained:
Type in all cases: cell-based
PTGER2 (EP2) = biological target: T1, PTGER2 (EP2) (Homo sapiens, UniProt P43116); test: hEP2 b-Arrestin Assay (PathHunter HEK 293 PTGER2 b-arrestin cells, PGE2 5 μM); conditions: antagonistic activity, beta-arrestin assay, HEK 293 PTGER2 cells, PGE2 5 μM (EC80); read-out: hEP2 b-arr IC50
T1 construct: host or cells: HEK 293 (PathHunter, stably transfected)
How it was run: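 PathHunter enzyme-fragment complementation in HEK 293 cells: compounds (10 μM-2 nM or 1 μM-0.2 nM) pre-incubated 15 min at 37 °C, then 5 μM PGE2 (EC80) for 120 min at 37 °C. Chemiluminescence read after 1 h detection; IC50 from duplicate dose-response fits, means of repeats.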

PTGER4 (EP4) = biological target: T2, PTGER4 (EP4) (Homo sapiens, UniProt P35408); test: hEP4 b-Arrestin Assay (PathHunter HEK 293 PTGER4 b-arrestin cells, PGE2 20 nM); conditions: antagonistic activity, beta-arrestin assay, HEK 293 PTGER4 cells, PGE2 20 nM (EC80); read-out: hEP4 b-arr IC50
T2 construct: host or cells: HEK 293 (PathHunter, stably transfected)
T2 sequence (P35408 whole entry): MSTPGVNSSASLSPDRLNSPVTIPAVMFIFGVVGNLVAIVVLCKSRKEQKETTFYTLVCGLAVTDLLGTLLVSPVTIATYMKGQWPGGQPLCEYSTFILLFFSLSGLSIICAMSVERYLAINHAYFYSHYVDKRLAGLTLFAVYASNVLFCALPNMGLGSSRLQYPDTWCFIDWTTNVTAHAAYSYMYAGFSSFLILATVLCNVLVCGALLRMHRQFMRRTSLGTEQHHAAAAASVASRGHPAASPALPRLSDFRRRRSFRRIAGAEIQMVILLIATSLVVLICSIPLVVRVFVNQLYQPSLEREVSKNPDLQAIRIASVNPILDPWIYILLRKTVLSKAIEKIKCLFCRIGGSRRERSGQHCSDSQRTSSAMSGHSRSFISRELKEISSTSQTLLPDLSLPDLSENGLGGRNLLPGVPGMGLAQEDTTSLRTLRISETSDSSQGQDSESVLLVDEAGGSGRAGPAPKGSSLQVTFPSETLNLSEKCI
Experimental: The antagonistic activities of the compounds of formula (I) on the EP2 and EP4 receptors are also determined in accordance with the following experimental method.
The assay is using the PathHunter™ HEK 293 PTGER2 and PTGER4 b-arrestin cell lines from DiscoverX. The system is based on the Enzyme Fragment Complementation Technology. Two complementing fragments of the b-galactosidase enzyme are expressed within stably transfected cells. The larger portion of b-gal, termed EA for Enzyme Acceptor, is fused to the C-terminus of b-arrestin 2. The smaller fragment, termed ProLink™ tag, is fused to PTGER2 (EP2) or PTRGER4 (EP4) at the C-terminus. Upon activation, b-arrestin is recruited which forces the interaction of ProLink and EA, allowing complementation of the two fragments of b-gal and the formation of a functional enzyme which is capable of hydrolysing the substrate and generating a chemiluminescent signal.
The HEK 293 PTGER4 b-arrestin cells (DiscoverX 93-030-4C1) are detached from culture dishes with a cell dissociation buffer (Invitrogen, 13151-014), and collected in growing medium (GM: DMEM+Glutamax-I (Invitrogen 32430)/10% FCS, 1% Penicilin/streptomycin). 5000 cells per well of a 384 well plate (white with white bottom Greiner 781080) are seeded in 20 ul per well of GM. Plate is incubated at 37° C., 5% CO2 for 24 hours.
Stock solutions of test compounds are made at a concentration of 10 mM in DMSO, and serially diluted in DMSO to concentrations required for inhibition dose response curves (tested concentration range 10 μM-2 nM or 1 μM-0.2 nM).
PGE2 (Cayman 14010, stock solution: 100 μM in DMSO) is used as agonist at 20 nM final concentration, corresponding to EC80.
Five microliters of diluted compounds are transferred into the assay plate. Plate is pre-incubated 15 minutes at 37° C. Then five microliters of PGE2 (final conc. 20 nM) are transferred into the assay plate. Plate is incubated 120 minutes at 37° C.
PathHunter Glo Detection Kit components are thawed and mix according to manufacturer's instructions: 1 part Galacton Star Substrate with 5 parts Emerald II™ Solution, and 19 parts of PathHunter Cell Assay Buffer, respectively. Twelve μl of reagent are transferred to the assay plate and incubate for 1 hour at room temperature in the dark. Luminescence counts are read on a BMG Fluostar Optima reader according to manufacturer's instructions.
For each compound concentration calculate of the percentage of activity compared to DMSO control value as average ±STDEV. (each concentration is measured in duplicate)
IC50 values and curves are generated with XLfit software (IDBS) using Dose-Response One Site model 203. When compounds were measured multiple times, mean values are given.

EP2 = biological target: T3, EP2 (Homo sapiens, UniProt P43116); test: hEP2 cAMP Assay (SF295 glioblastoma cells, HTRF cAMP, PGE2 75 nM); conditions: antagonistic activity, PGE2 75 nM (EC80)
T3 construct: SF295 glioblastoma cells express high endogenous EP2 and no EP4; host or cells: SF295 glioblastoma cells
T3 sequence (P43116 whole entry): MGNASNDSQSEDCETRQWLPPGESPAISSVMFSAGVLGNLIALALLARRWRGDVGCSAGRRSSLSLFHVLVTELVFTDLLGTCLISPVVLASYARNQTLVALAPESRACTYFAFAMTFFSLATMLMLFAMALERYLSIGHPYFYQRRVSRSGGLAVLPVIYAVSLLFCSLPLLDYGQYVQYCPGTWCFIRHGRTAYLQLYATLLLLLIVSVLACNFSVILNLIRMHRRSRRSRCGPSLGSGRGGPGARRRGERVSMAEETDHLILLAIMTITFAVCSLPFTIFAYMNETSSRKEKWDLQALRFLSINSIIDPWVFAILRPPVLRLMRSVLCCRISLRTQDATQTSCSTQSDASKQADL
How it was run: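 IC50 values derive from duplicate-point curves of percent cAMP relative to DMSO, read by HTRF (665/620 nm) against a cAMP calibrator. Compounds (30 μM to 0.01 nM ranges) were given 45 min at room temperature before 30 min with 75 nM PGE2, in EP2-only SF295 cells with 2 mM IBMX.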

EP4 = biological target: T4, EP4 (Homo sapiens, UniProt P35408); test: hEP4 cAMP Assay (BT549 breast cancer cells, HTRF cAMP, PGE2 6 nM); conditions: antagonistic activity, PGE2 6 nM (EC80)
T4 construct: BT549 breast cancer cells, express high endogenous EP4 levels and very low EP2 levels; host or cells: BT549 breast cancer cells
T4 sequence (P35408 whole entry): as the sequence (P35408 whole entry) above
How it was run: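 Antagonism is measured as inhibition of PGE2 (6 nM final, EC80) cAMP accumulation in EP4-expressing BT549 breast cancer cells, after a 45 min room-temperature compound pre-incubation and 30 min agonist step, with 2 mM IBMX present. HTRF ratio gives cAMP relative to DMSO; IC50 fitted, means over repeat runs.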

T1 sequence (P43116 whole entry): as the sequence (P43116 whole entry) above

| Structure (SMILES) | IC50 (PTGER2 (EP2)) [nM] | IC50 (PTGER4 (EP4)) [nM] | IC50 (EP2) [nM] | IC50 (EP4) [nM] |
| --- | --- | --- | --- | --- |
| CCOc1cc(-c2cc(NCCc3cccc4cccnc34)ncn2)sc1-c1noc(=O)[nH]1 [Example 140, 3-{3-Ethoxy-5-[6-(2-quinolin-8-yl-ethylamino)-pyrimidin-4-yl]-thiophen-2-yl}-[1,2,4]oxadiazol-5(4H)-one] | 119 | 15 | 142 | 17 |
| Cn1ccc2c(CCNc3cc(-c4ccc(C(=O)O)c(OC5CCC5)c4)ncn3)cccc21 [Example 159, 2-Cyclobutoxy-4-{6-[2-(1-methyl-1H-indol-4-yl)-ethylamino]-pyrimidin-4-yl}-benzoic acid] | 44 | 864 | 110 | 1050 |
| CCOc1cc(-c2cc(NCCc3cccc4nc(C)sc34)ncn2)sc1C(=O)O [Example 31, 3-Ethoxy-5-{6-[2-(2-methyl-benzothiazol-7-yl)-ethylamino]-pyrimidin-4-yl}-thiophene-2-carboxylic acid] | 201 | 1410 | 190 | 567 |
| COc1ccc2ccccc2c1CCNc1cc(-c2ccc(-c3c(O)c(=O)c3=O)cc2)ncn1 [Example 116, 3-Hydroxy-4-(4-{6-[2-(2-methoxy-naphthalen-1-yl)-ethylamino]-pyrimidin-4-yl}-phenyl)-cyclobut-3-ene-1,2-dione] | 25 | 1140 | 67 | 241 |
| CCOc1cc(-c2cc(NCCc3c(OC)ccc4ccccc34)ncn2)ccc1OCCC(=O)O [Example 120, 3-(2-Ethoxy-4-{6-[2-(2-methoxy-naphthalen-1-yl)-ethylamino]-pyrimidin-4-yl}-phenoxy)-propionic acid] | 16 | 75 | 88 | 206 |
| CCOc1cc(-c2cc(NCCc3c(OC)ccc4ccccc34)ncn2)sc1C(=O)O [Example 4, 3-Ethoxy-5-{6-[2-(2-methoxy-naphthalen-1-yl)-ethylamino]-pyrimidin-4-yl}-thiophene-2-carboxylic acid] | 2 | 20 | 2 | 15 |
| CCOc1cc(-c2cc(NCCc3c(OC(F)F)ccc4ccccc34)ncn2)sc1C(=O)O [Example 32, 5-{6-[2-(2-Difluoromethoxy-naphthalen-1-yl)-ethylamino]-pyrimidin-4-yl}-3-ethoxy-thiophene-2-carboxylic acid] | 10 | 19 | 10 | 72 |
| CCOc1cc(-c2cc(NCCc3c(OC)ccc4ncccc34)ncn2)sc1C(=O)O [Example 65, 3-Ethoxy-5-{6-[2-(6-methoxy-quinolin-5-yl)-ethylamino]-pyrimidin-4-yl}-thiophene-2-carboxylic acid] | 18 | 78 | 15 | 75 |
| CCOc1cc(-c2cc(NCCc3c(OC)ccc4ccccc34)ncn2)ccc1NC(=O)C(=O)O [Example 133, N-(2-Ethoxy-4-{6-[2-(2-methoxy-naphthalen-1-yl)-ethylamino]-pyrimidin-4-yl}-phenyl)-oxalamic acid] | 6 | 41 | 22 | 79 |
| CCOc1cc(-c2cc(NCCc3c(OC)ccc4ncccc34)ncn2)sc1-c1noc(=O)[nH]1 [Example 142, 3-(3-Ethoxy-5-{6-[2-(6-methoxy-quinolin-5-yl)-ethylamino]-pyrimidin-4-yl}-thiophen-2-yl)-[1,2,4]oxadiazol-5(4H)-one] | 7 | 10 | 40 | 27 |
| CSc1cc(-c2cc(NCCc3ccc(Br)c4ccn(C)c34)ncn2)ccc1C(=O)O [Example 169, 4-{6-[2-(4-Bromo-1-methyl-1H-indol-7-yl)-ethylamino]-pyrimidin-4-yl}-2-methylsulfanyl-benzoic acid] | 230 | 350 |  |  |
| CCOc1cc(-c2cc(NCCc3c(OC)ccc4sccc34)ncn2)ccc1CC(=O)O [Example 166, (2-Ethoxy-4-{6-[2-(5-methoxy-benzo[b]thiophen-4-yl)-ethylamino]-pyrimidin-4-yl}-phenyl)-acetic acid] | 51 | 216 |  |  |
| CCOc1cc(-c2cc(NCCc3cc(F)cc4sccc34)ncn2)ccc1CC(=O)O [Example 165, (2-Ethoxy-4-{6-[2-(6-fluoro-benzo[b]thiophen-4-yl)-ethylamino]-pyrimidin-4-yl}-phenyl)-acetic acid] | 864 | 555 |  |  |
| CSc1cc(-c2cc(NCCc3c(Br)cc(F)c4ccccc34)ncn2)ccc1C(=O)O [Example 170, 4-{6-[2-(2-Bromo-4-fluoro-naphthalen-1-yl)-ethylamino]-pyrimidin-4-yl}-2-methylsulfanyl-benzoic acid] | 474 | 407 |  |  |

The next lines start with the values.

| IC50 (PTGER2 (EP2)) [nM] | IC50 (PTGER4 (EP4)) [nM] | IC50 (EP2) [nM] | IC50 (EP4) [nM] | Structure (SMILES) |
| --- | --- | --- | --- | --- |
| 27 | 375 | 48 | 330 | CCOc1cc(-c2cc(NCCc3cccc4c(C)cccc34)ncn2)ccc1C(=O)O [Example 184, 2-Ethoxy-4-{6-[2-(5-methyl-naphthalen-1-yl)-ethylamino]-pyrimidin-4-yl}-benzoic acid] |
| 142 | 871 |  |  | CSc1cc(-c2cc(NCCc3cc(F)cc4ccccc34)ncn2)ccc1C(=O)O [Example 178, 4-{6-[2-(3-Fluoro-naphthalen-1-yl)-ethylamino]-pyrimidin-4-yl}-2-methylsulfanyl-benzoic acid] |
| 3 | 245 |  |  | COc1ccc2c(ccn2C)c1CCNc1cc(-c2ccc(C(=O)O)c(SC)c2)ncn1 [Example 175, 4-{6-[2-(5-Methoxy-1-methyl-1H-indol-4-yl)-ethylamino]-pyrimidin-4-yl}-2-methylsulfanyl-benzoic acid] |
| 23 | 219 |  |  | CCOc1cc(-c2cc(NCCc3c(OC)ccc4ccccc34)ncn2)ccc1Cc1noc(=O)[nH]1 [Example 191, 3-(2-Ethoxy-4-{6-[2-(2-methoxy-naphthalen-1-yl)-ethylamino]-pyrimidin-4-yl}-benzyl)-[1,2,4]oxadiazol-5(4H)-one] |
| 10 | 563 |  |  | CCOc1cc(-c2cc(NCCc3c(OCC)ccc4sccc34)ncn2)ccc1C(=O)O [Example 187, 2-Ethoxy-4-{6-[2-(5-ethoxy-benzo[b]thiophen-4-yl)-ethylamino]-pyrimidin-4-yl}-benzoic acid] |
| 45 | 605 |  |  | CSc1cc(-c2cc(NCCc3cccc4c(F)cccc34)ncn2)ccc1C(=O)O [Example 172, 4-{6-[2-(5-Fluoro-naphthalen-1-yl)-ethylamino]-pyrimidin-4-yl}-2-methylsulfanyl-benzoic acid] |
| 14 | 200 |  |  | CCOc1cc(-c2cc(NCCc3c(OC)ccc4sccc34)ncn2)ccc1C(=O)O [Example 185, 2-Ethoxy-4-{6-[2-(5-methoxy-benzo[b]thiophen-4-yl)-ethylamino]-pyrimidin-4-yl}-benzoic acid] |

Source: patent US11446298B2, “Pyrimidine derivatives” (Idorsia Pharmaceuticals Ltd, priority 2017, dated 2022)
